# Measurements as given in US20260224475A1, “MULTI-COMPONENT INTRAVAGINAL RING” (priority 2023, published 2026).
# Where two headings read alike, the source gives them in different places.
# Legend:
# human sperm [1] = experiment: Sperm motility assay; type: cell-based; conditions: for Average Motility Reduction: average of nine 3-API checkerboard combinations containing the named API at this dose; for Average CI: average of nine 3-API combinations
# Method: Fresh human sperm samples were obtained the day of the experiment. 100 mM stock solutions of each API in saline were prepared in advance. Immediately prior to the experiment, solutions of each API concentration to be tested were prepared via dilution with saline. These include solutions of multiple APIs added together.
# The effect of each API on sperm motility and viability was determined using human donors, adding 200 μL of API's diluted in sterile saline to 50 μL of fresh semen. For motility assessments, the incubation mixture was incubated for 5 minutes and then 100 sperm were counted under the microscope by two andrology-trained researchers and classified as either non-motile or motile. If motile, the sperm were further classified according to the nature of their motility—from barely twitching with no forward progression to progressively motile. Each experiment was repeated at least three times on different days using different donors to account for natural variations in sperm properties.
# The % motility for each experimental condition was calculated by normalizing the fraction of motile sperm in the experimental groups to the fraction of motile sperm in the saline control treated group, setting 100% to the average fraction of motile sperm from control experiments. For example, the % motility at concentration c would be:
# Once % motility data was obtained, the synergy was measured with Compusyn software. See Chou et al., CompuSyn for drug combinations: PC software and user's guide: a computer program for quantitation of synergism and antagonism in drug combinations, and the determination of IC50. ED50 and LD50 values, which is incorporated herein by reference in its entirety. Motility data for individual API concentration as well as all double and triple API solutions was entered into the program and analyzed according to the Chou-Talalay Median Effect Principle.
# Next, the synergy between each of the APIs was tested to determine if there were any synergistic effects between compounds which would allow for reduced dosages. Each of the three possible two-compound combinations were tested, followed by the combination of all three APIs. […] Synergy was calculated with Compusyn using the Chou-Talalay Median Effect approach and represented as a CI (Combination Index) value. […] The smaller the CI value for a combination, the greater the degree of synergy.
# After the two-API combinations were complete, the full three-way synergy was tested using a 3×3×3 checkerboard style assay to test all 27 permutations of three chosen concentrations for each of the three APIs.
# From the resulting data, the estimated effects of each of the individual API were isolated by averaging % reduction in motility and the CI values for each of the API concentrations tested. With this 3×3×3 checkerboard assay, each single concentration was tested against nine permutations of the other two APIs, meaning that each cell in Table 4 represents the average of the nine combinations involving the specified API concentration.
# Synergy was calculated utilizing the Chou-Talalay median effect principle and Compusyn software which quantifies synergy as a combination index (CI) for each combination. A CI<1 signifies synergy, a CI>1 signifies antagonism and a CI=1 signifies a purely additive effect.
# human sperm [2] = experiment: Sperm-Cervical Mucus Penetration Test (SMPT) in methylcellulose; type: cell-based
# N. gonorrhoeae = experiment: Minimal cidal concentration (MCC); type: cell-based
# C. trachomatis = experiment: Bactericidal activity against C. trachomatis (inclusion count in HeLa cells); type: cell-based; conditions: absence or presence of 2% VF and 20% SF, 2 hours at room temperature; LA 80 mM
# Method: C. trachomatis was incubated with actives ±2% VF and 20% SF for 2 hours at room temperature. The mixtures were serially diluted 1/10 in SPG solution, applied on HeLa cells in triplicate. Images were acquired using the Cytation-5 instrument and the inclusion count was analyzed using the Gen5 software in the Cytation-5. Control conditions included HeLa cells challenged with C. trachomatis in the absence of the actives. (FIG. 15).
# Ectocervical explants = test system: Ectocervical explants
# Method: Kruskal-Wallis test with Dunn's multiple comparison) (FIG. 22).
# In FIG. 23, ectocervical explants were incubated with the selected concentrations of the APIs for 24 hr in the presence or absence of 5% VF. Explants were fixed, paraffin embedded, sectioned and stained with H&E.
# Ectocervical explants were exposed to the APIs 24 hr in the presence or absence of 5% VF. Supernatants were collected and analyzed for pro-inflammatory cytokines.
# VEC-100 tissue [3] = experiment: VEC-100 tissue, repeated exposure (1 hr daily for 5 days; viability, TEER); type: cell-based
# [4] = 10 days exposure
# HIV-1BaL = experiment: MAGI assay, anti-HIV-1BaL activity in TZMbl cells; type: cell-based; conditions: single API; 30 min pre-incubation with virus in saline, 10-fold dilution, 72 h on TZMbl cells; read-out: EC50 (95% confidence interval)
# Method: MAGI assay was performed to test anti-HIV-1BaL activity. […] Virus controls containing HIV-1BaL in saline were incubated under the same conditions. Following incubation, API-HIV-1BaL mixture was diluted 10-fold and added to TZMbl cells. Following 72-hour incubation, the cells were washed and stained with X-gal and fixed. […] Infected cells were counted using CTL instrument.
# HSV-2 G = experiment: HSV-2 plaque reduction assay; type: cell-based; conditions: single API, 30 min pre-incubation with HSV-2 G in saline, read-out: EC50 (95% confidence interval)
# Method: The HSV-2 plaque reduction assay was performed to test the anti-HSV-2 activity of ZA, CS and LA. […] Virus controls containing HSV-2 in saline were incubated under the same conditions. After incubation all dilutions and controls were diluted 1/10 in DMEM and tittered using the plaque assay. FIG. 12 and Table 10 show the results. […] The data represented the average of two independent experiments. In Table 10, the molar ratio of CS:LA:ZA in ZS-CA-LA is 1:20:100.
# G. vaginalis = experiment: Minimal cidal concentration (MCC); type: cell-based; conditions: 30 minutes exposure; >3 log decrease in CFU considered cidal
# VEC-100 tissue [5] = conditions: 100 mM
# Method: VEC-100 tissues were incubated with APIs for 24 hr. Tissue viability was analyzed by MTT and LDH assay and TEER measurements were recorded.
# [6] = Dose 1 (CS 2.95, ZA 4.75, LA 10.26 mM)
# [7] = Dose 2 (CS 3.94, ZA 6.34, LA 13.70 mM)
# [8] = Dose 3 (CS 5.90, ZA 9.51, LA 20.54 mM)
compound,measurement,setting,value
"CC(O)C(=O)[O-].CC(O)C(=O)[O-].[Zn+2] (centres unmarked) [ZL, zinc lactate]",EC90,"human sperm [1]; Table 16, concentration of the named API in the CS + ZL + LA combination (cf. Table 7), read-out: Anti-Sperm concentrations Total motility (EC90)",22 mM
same,EC90,"human sperm [1]; Table 18, concentration of the named API in the CS + ZL + LA combination, read-out: Anti-Sperm concentrations Total motility (EC90)",22 mM
same,MIC (concentration to inhibit progressive sperm motility),human sperm [1]; single API,30 mM
same,EC50,human sperm [1]; single API (CS/ZL/LA study),45 mM
same,EC90,"human sperm [1]; single API (CS/ZL/LA study), read-out: EC90",94 mM
same,EC90,"human sperm [1]; single API, read-out: Reduction of Sperm Motility EC90 [95% CI] (concentration to inhibit total sperm motility)",94 mM
same,EC90,"human sperm [2]; Table 16, concentration of the named API in the CS + ZL + LA combination (cf. Table 7), read-out: Anti-Sperm concentrations Sperm-mucus penetration (EC90)",5 mM
same,EC90,"human sperm [2]; Table 18, concentration of the named API in the CS + ZL + LA combination, read-out: Anti-Sperm concentrations Sperm-mucus penetration (EC90)",5 mM
same,EC90,"human sperm [2]; single API, 1% methylcellulose, 30 minutes, read-out: Inhibition of Sperm Mucus Penetration EC90 [95% CI] (Migration of vanguard sperm in methyl cellulose spiked with API)",13 mM
same,MCC 10% AB Serum,N. gonorrhoeae,>100 mM
same,MCC 30% AB Serum,N. gonorrhoeae,>100 mM
same,MCC No Serum,N. gonorrhoeae,>100 mM
same,inhibitory activity (in words),N. gonorrhoeae; ± human serum,not inhibitory
same,inhibition of C. trachomatis infection (in words),C. trachomatis,exception
same,"Ectocervix: single exposure (MTT, Histology, CC) 24 h, 5% VF",Ectocervical explants; 25 mM,No Tox
same,"Ectocervix: single exposure (MTT, Histology, CC) 24 h, No VF",Ectocervical explants; 25 mM,No Tox
same,"Ectocervix: single exposure (MTT, Histology, CC) 24 h, 5% VF",Ectocervical explants; 50 mM,No Tox
same,"Ectocervix: single exposure (MTT, Histology, CC) 24 h, No VF",Ectocervical explants; 50 mM,No Tox
same,"Ectocervix: single exposure (MTT, Histology, CC) 24 h, 5% VF",Ectocervical explants; 100 mM,No Tox
same,"Ectocervix: single exposure (MTT, Histology, CC) 24 h, No VF",Ectocervical explants; 100 mM,No Tox
same,Non-toxic concentrations in ectocervix MTT and histology 24 hr,Ectocervical explants; single treatment,100 mM
same,"VEC-100 single exposure (MTT, TEER and LDH) day 1-5 24 h No VF",VEC-100 tissue [3]; 10 mM,No Tox
same,"VEC-100 single exposure (MTT, TEER and LDH) day 1-5 24 h No VF",VEC-100 tissue [3]; 21 mM,No Tox
same,Non-toxic concentrations in VEC-100 model TEER and LDH 5 daily exposures,VEC-100 tissue [3]; multiple treatments,21 mM
same,Non-toxic concentrations based on rat vaginal irritation study 10 days exposure,[4],50 mM
"CC(=O)[O-].CC(=O)[O-].[Zn+2] [ZA, zinc acetate]",Average Motility Reduction,human sperm [1]; [6],63.47%
same,Average CI,human sperm [1]; [6],0.48
same,Average Motility Reduction,human sperm [1]; [7],73.77%
same,Average CI,human sperm [1]; [7],0.47
same,Average Motility Reduction,human sperm [1]; [8],80.09%
same,Average CI,human sperm [1]; [8],0.45
same,EC50,"human sperm [1]; single API (CS/ZA/LA study), saline, 5 min with fresh semen, % motility vs saline control",19 mM
same,EC90,"human sperm [1]; single API (CS/ZA/LA study), saline, 5 min with fresh semen, % motility vs saline control, read-out: EC90",33.2 mM
same,EC50,HIV-1BaL,1.96 mM
same,EC50,HSV-2 G,0.78 mM
same,MCC 10% AB Serum,N. gonorrhoeae,100 mM
same,MCC 30% AB Serum,N. gonorrhoeae,>100 mM
same,MCC,"N. gonorrhoeae; 30 minutes exposure, >3 log decrease in CFU considered cidal",100 mM
same,MCC No Serum,N. gonorrhoeae,100 mM
same,MCC,G. vaginalis,> 100 mM
same,"Ectocervix: single exposure (MTT, Histology, CC) 24 h, 5% VF",Ectocervical explants; 100 mM,No Tox
same,"Ectocervix: single exposure (MTT, Histology, CC) 24 h, No VF",Ectocervical explants; 100 mM,No Tox
same,"VEC-100: Single exposure (MTT, TEER and LDH) 24 h, No VF",VEC-100 tissue [5],No Tox
Triton [reference compound],"VEC-100 single exposure (MTT, TEER and LDH) day 1-5 24 h No VF","VEC-100 tissue [3]; control, concentration not given",Tox
"O=S(=O)([O-])[O-].[Cu+2] [CS, copper sulfate]",EC50,HIV-1BaL,0.183 mM
same,EC50,HSV-2 G,0.009 mM
same,inhibition of C. trachomatis infection (in words),C. trachomatis,significantly inhibited infection
